Laboratory results as given in patent publication US8039488B2, “Methods and compositions for inhibition of angiogenesis” (Children's Medical Center Corporation, priority 1996, dated 2011).

Tests used:
[1] = test system: bFGF induced angiogenesis; test: Angiogenesis in the eye, assay described in Example 2, bFGF; assay type: in vivo, rabbit
Procedure: (§1) Angiogenesis in the eye, in the assay described in Example 2, is produced by the presence of bFGF (basic fibroblastic growth factor) and VEGF (vascular endothelial cell growth factor).
(§2) Pellets for implantation into rabbit corneas were made by mixing 110 μl of saline containing 12 μg of recombinant bFGF (Takeda Pharmaceuticals-Japan) with 40 mg of sucralfate (Bukh Meditec-Denmark); this suspension was added to 80 μl of 12% hydron (Interferon Sciences) in ethanol. 10 μl aliquots of this mixture was then pipetted onto Teflon pegs and allowed to dry producing approximately 17 pellets. A pellet was implanted into corneal micropockets of each eye of an anesthetized female New Zealand white rabbit, 2 mm from the limbus followed by topical application of erythromycin ointment onto the surface of the cornea. The animals were fed daily from 2 days post-implantation by gastric lavage with either drug suspended in 0.5% carboxymethyl cellulose or 0.5% carboxymethyl cellulose alone. Thalidomide was purchased from Andrulus Pharmaceutical (Maryland) and the EM-12 and Supidimide were kindly provided by Grunenthal GMBH (Germany). The animals were examined with a slit lamp every other day in a masked manner by the same corneal specialist. The area of corneal neovascularization was determined by measuring with a reticule the vessel length (L) from the limbus and the number of clock hours (C) of limbus involved. A formula was used to determine the area of a circular band segment: C/12*3.1416 [r^2−(r−L)^2] where r=6 mm the measured radius of the rabbit cornea.

[2] = test system: bFGF induced angiogenesis; test: Mouse corneal micropocket assay, bFGF pellets; assay type: in vivo, mice; settings: for inhibition in vivo at 100 mg/kg: dose 100 mg/kg once daily, area of corneal neovascularization vs controls; for inhibition in vivo at 200 mg/kg: dose 200 mg/kg once daily; for inhibition of bFGF induced neovascularization: dose not given
Procedure: (§3) Six to eight week old C57B 16 male mice were obtained from Jackson Laboratories, MA. The mice were anesthetized, and 0.4×0.4 mm pockets were made in the stroma of the mouse cornea adjacent to the limbus. Pellets containing 80 ng of either bFGF or VEGF were […]. The pellets containing bFGF were implanted 1.0-1.2 mm from the limbal vessels, while the pellets containing VEGF were implanted 0.5-0.7 mm from the limbal vessels. Erythromycin was then topically applied.
(§4) The vascular response to the pellets was measured by maximal vessel length and number of clock hours of neovascularization 5 days after implantation of the bFGF pellets and 6 days after implantation of the VEGF pellets. The area of corneal neovascularization was calculated using the following formula which best approximated the area of neovascularization: Area (mm^2)=[π×clock hours×length (mm)×0.2 (mm)].
(§5) Inhibitory effect is expressed in percentage representing the area of corneal neovascularization by either bFGF or VEGF compared to controls (n=8/experiment) of the experiments in which that particular drug was tested. N=the number of eyes that were tested and drugs were given once daily either sc, ip or oral as described.
(§6) Six to eight week old C57B 16 male mice were obtained from Jackson Laboratories, MA. The mice were anesthetized, and 0.4×0.4 mm pockets were made in the stroma of the mouse cornea adjacent to the limbus. Pellets containing 80 ng of either bFGF or VEGF were implanted. The pellets containing bFGF were implanted 1.0-1.2 mm from the limbal vessels, while the pellets containing VEGF were implanted 0.5-0.7 mm from the limbal vessels. Erythromycin was then topically applied.
(§7) The mice were then treated with thalidomide, indomethacin, sulindac, or combinations of thalidomide with either indomethacin or sulindac. The vascular response to the pellets was measured by maximal vessel length and number of clock hours of neovascularization 5 days after implantation of the bFGF pellets and 6 days after implantation of the VEGF pellets. The area of corneal neovascularization was calculated using the following formula which best approximates the area of neovascularization: Area (mm^2)=[π×clock hours×length (mm)×0.2 (mm)].
Six to eight week old C57B16 male mice, obtained from Jackson Laboratories, MA, were anesthetized, and 0.4×0.4 mm pockets were made in the stroma of the mouse cornea adjacent to the limbus. Pellets containing 80 ng of bFGF were implanted 1.0-1.2 mm from the limbal vessels. Erythromycin was then topically applied.
The mice were then treated with sulindac, or one of the sulindac derivatives, sulindac sulfone or sulindac sulfide. The vascular response to the pellets was measured by maximal vessel length and number of clock hours of neovascularization 5 days after implantation of the bFGF pellets. The area of corneal neovascularization was calculated using the following formula which best approximates the area of neovascularization: Area (mm^2)=[π×clock hours×length (mm)×0.2 (mm)].
Inhibitory effect is expressed in percentage representing the area of corneal neovascularization by bFGF compared to controls (n=8/experiment. N=the number of eyes that were tested and drugs were given once daily either sc, ip or oral as described.

[3] = test system: VEGF induced angiogenesis; test: Angiogenesis in the eye, assay described in Example 2, VEGF; assay type: in vivo, rabbit
Procedure: as §1, §2

[4] = test system: bFGF induced corneal neovascularization; test: Rabbit cornea angiogenesis assay; assay type: in vivo; settings: 100 mg/kg/day
[5] = test system: bFGF induced corneal neovascularization; test: Rabbit cornea angiogenesis assay; assay type: in vivo
Procedure: as §2
Pellets containing bFGF and sucralfate were implanted into micropockets of both corneas of rabbits according to Example II. Vessel ingrowth into clear cornea from the limbus was first noted on day 2 and treatments (200 mg/kg orally) were begun on this day. The area of corneal neovascularization was measured from day 4 through day 12. Day 8 measurements were used for comparison between groups. […] Statistical analysis was performed with ANOVA with ranked data to account for interexperimental variation and to guard against a non-normal distribution of data (i.e. outliers) by utilizing a nonparametric method.

[6] = test system: VEGF induced angiogenesis; test: Mouse corneal micropocket assay, VEGF pellets; assay type: in vivo, mice; settings: 6 days after implantation
Procedure: as §3, §4, §5, §6, §7

V2-carcinoma = V2-carcinoma tumor assay in rabbits; assay type: in vivo, rabbit; settings: 17 days after start of treatment
Procedure: New Zealand White female rabbits, weighing approximately 1.5 kg, obtained from Charles River, Mass., were used for propagating the V2-carcinoma. This tumor originates from a Shope virus-induced papilloma. Small 0.5×0.5 cm pieces were implanted intramuscularly in the right thigh. Treatment with 200 mg/kg/day thalidomide (n=14), 60 mg/kg/day sulindac (n=5), or a combination of thalidomide and sulindac (n=10) was started at day 10 after tumor implantation, when the mean volume of the tumor was 6 cm^3. The control animals (n=13) were treated with methylcellulose. […] The data were collected in 3 separate experiments and each bar represents the standard error of the mean.

Crohn's disease = test: Treatment of a patient with Crohn's disease; assay type: in vivo, human; settings: 100 mg twice a day orally, one week
Procedure: A patient with Crohn's disease was treated using the methods of the present invention. […] Thalidomide was orally administered to them at a dosage of 100 mg twice a day.

[7] = Mus musculus, 120 h, 5 days after implantation
[8] = Mus musculus, 120 h, dose 25 mg/kg once daily, 5 days after implantation

CO[C@@H]1[C@H](OC(=O)NC(=O)CCl)CC[C@]2(CO2)[C@H]1[C@@]1(C)O[C@@H]1CC=C(C)C [AGM 1470]
% Inhibition of bFGF induced angiogenesis ([1]; dose 30 mg/kg qod): 48%

CC(=O)Nc1ccc(O)cc1 [Acetaminophen]
inhibition in vivo at 100 mg/kg [2, 7]: 0% | % Inhibition of VEGF induced angiogenesis ([3]; dose 100 mg/kg): 0% | % Inhibition of bFGF induced angiogenesis ([1]; dose 100 mg/kg): 0%

CC(=O)Oc1ccccc1C(=O)O [Aspirin, aspirin]
% Inhibition of bFGF induced angiogenesis ([1]; dose 100 mg/kg): 8%

O=C1CCC(N2Cc3ccccc3C2=O)C(=O)N1 (stereo not shown) [EM-12]
% inhibition in the rabbit cornea assay [4]: 21% | median inhibition of the area of vascularized cornea ([5]; 200 mg/kg orally, day 8): 42% | % inhibition in the rabbit cornea assay ([5]; 200 mg/kg/day): 43%

O=c1ccc2cc(O)c(O)cc2o1 [Esculetin, esculetin]
inhibition in vivo at 200 mg/kg [2, 7]: 15%

C[C@]12CCC(=O)C=C1CC[C@@H]1[C@@H]2[C@@H](O)C[C@@]2(C)[C@H]1CC[C@]2(O)C(=O)CO [Hydrocortisone, hydrocortisone]
% Inhibition of VEGF induced angiogenesis ([3]; dose 20 mg/kg): 40% | % Inhibition of bFGF induced angiogenesis ([1]; dose 20 mg/kg): 50%

CC(C)Cc1ccc(C(C)C(=O)O)cc1 (stereo not shown) [Ibuprofen, ibuprofen]
inhibition in vivo at 25 mg/kg [2, 8]: 6% | % Inhibition of VEGF induced angiogenesis ([3]; dose 20 mg/kg): 11% | % Inhibition of bFGF induced angiogenesis ([1]; dose 20 mg/kg): 7% | % Inhibition of VEGF induced angiogenesis ([6]; dose 25 mg/kg once daily): 8%

COc1ccc2c(c1)c(CC(=O)O)c(C)n2C(=O)c1ccc(Cl)cc1 [Indomethacin, indomethacin]
inhibition in vivo at 5 mg/kg ([2]; Mus musculus, 120 h, dose 5 mg/kg once daily, 5 days after implantation): 59% | % Inhibition of VEGF induced angiogenesis ([6]; dose 5 mg/kg once daily): 61%

C[C@H](Cc1ccc(O)c(O)c1)[C@@H](C)Cc1ccc(O)c(O)c1 [NDGA, nordihydroguiaretic acid]
inhibition in vivo at 25 mg/kg [2, 8]: 30%

CS(=O)(=O)Nc1ccc([N+](=O)[O-])cc1OC1CCCCC1 [NS-398]
inhibition of bFGF induced neovascularization [2]: 25%

O=C1CCC(N2C(=O)c3ccccc3C2=O)C(=O)O1 (stereo not shown) [PGA]
inhibitory activity on corneal neovascularization, in words ([5]; 200 mg/kg orally): weaker inhibitory effects than thalidomide

O=C1CCN(c2ccccc2)N1 [Phenidone, phenidone]
inhibition in vivo at 100 mg/kg [2, 7]: 17%

O=c1c(O)c(-c2ccc(O)c(O)c2)oc2cc(O)cc(O)c12 [Quercetin, quercetin]
inhibition in vivo at 300 mg/kg ([2]; Mus musculus, 120 h, dose 300 mg/kg once daily, 5 days after implantation): 18%

CCCC(C(=O)OCCN(CC)CC)(c1ccccc1)c1ccccc1.Cl [SKF525AHCL]
inhibition of bFGF induced neovascularization [2]: 25%

CSc1ccc(/C=C2/C(C)=C(CC(=O)O)c3cc(F)ccc32)cc1 [Sulindac sulfide, sulindac sulfide]
inhibition in vivo at 25 mg/kg [2, 8]: 31% | % inhibition ([2]; dose 50 mg/kg once daily, bFGF pellets, 5 days after implantation): 34% | inhibition of bFGF induced neovascularization [2]: 34%

CC1=C(CC(=O)O)c2cc(F)ccc2/C1=C\c1ccc(S(C)(=O)=O)cc1 [Sulindac sulfone, sulindac sulfone]
% Inhibition of bFGF induced angiogenesis ([2]; dose 25 mg/kg once daily, 5 days after implantation): 31% | inhibition of bFGF induced neovascularization [2]: 31%

CC1=C(CC(=O)O)c2cc(F)ccc2/C1=C\c1ccc([S+](C)[O-])cc1 (stereo not shown) [Sulindac, (Z)-5-Fluoro-2-methyl-1-[[4-(methyl-sulfinyl)phenyl]methylene]-1H-indene-3-acetic acid]
inhibition in vivo at 25 mg/kg [2, 8]: 50% | % Inhibition of VEGF induced angiogenesis ([3]; dose 25 mg/kg): 54% | % Inhibition of bFGF induced angiogenesis ([1]; dose 25 mg/kg): 52% | % Inhibition of VEGF induced angiogenesis ([6]; dose 25 mg/kg once daily): 55% | inhibition of tumor growth (V2-carcinoma; 60 mg/kg/day oral): 35%

O=C1CCC(N2C(=O)c3ccccc3S2(=O)=O)C(=O)N1 (stereo not shown) [Supidimide]
inhibitory activity on corneal neovascularization, in words ([5]; 200 mg/kg orally): no activity | area of corneal neovascularization, % of control ([5]; 200 mg/kg orally, day 8): 107 % of control

O=C1CCC(N2C(=O)c3ccccc3C2=O)C(=O)N1 (stereo not shown) [Thalidomide, thalidomide]
inhibition in vivo at 200 mg/kg [2, 7]: 41% | % Inhibition of VEGF induced angiogenesis ([3]; dose 200 mg/kg): 44% | gastrointestinal symptoms, including diarrhea and cramping (Crohn's disease): lessened | skin lesion on the lower leg (Crohn's disease): resolved | % Inhibition of bFGF induced angiogenesis ([1]; dose 200 mg/kg): 42% | % Inhibition of VEGF induced angiogenesis ([6]; dose 200 mg/kg once daily): 40% | inhibition of tumor growth (V2-carcinoma; 200 mg/kg/day oral): 55% | density of vessel ingrowth ([5]; 200 mg/kg orally): markedly reduced | sedation of the rabbits ([5]; 200 mg/kg orally): did not demonstrate obvious sedation | onset of inhibition of angiogenesis ([5]; 200 mg/kg orally (FIG. 7)): after only two doses | inhibition of the area of vascularized cornea, range in three experiments ([5]; 200 mg/kg orally, day 8): 30-51% | median inhibition of the area of vascularized cornea ([5]; 200 mg/kg orally, day 8): 36%

O=C(O)c1cc2cc(Cc3cccnc3)ccc2o1 [furegrelate sodium]
inhibition of bFGF induced neovascularization [2]: 22%

carbomethylheptyl imidazole
inhibition of bFGF induced neovascularization [2]: 32%
